Source: PubChem BioAssay AID179 (DTP/NCI, 2004)
“And” between values parts separate entries of the source, which are not always exact repeats. Equal values may be shown once. The source made the active and inactive calls.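 Rule for the calls: active = compounds giving half or more protection of infected cells from virus-caused growth loss, again on retest; inactive = the rest.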

System: CEM cells HIV-1 protection, formazan growth assay
Assay: NCI AIDS Antiviral Assay
Conditions: for IC50: measured here: growth of uninfected CEM cells
Method in brief: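 Human CEM cells, uninfected and HIV-1-infected, received five drug concentrations, and growth was read by soluble formazan assay. Compounds giving at least 50% protection were retested; reproducible 100% protection defined confirmed active.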

## COc1ccc2[nH]c3c(c2c1)[C@H](c1ccccc1)C[C@@H]1C(=O)N(c2ccccc2)C(=O)[C@H]31
  outcome: inactive

## CC12c3c4cc(Br)cc3Oc3cc(Br)cc(c31)Oc1cc(Br)cc(c12)O4
  EC50: > 200 µM
  IC50: 33.1 µM

## CCc1ccccc1-n1c2nc(=O)n(C)c(=O)c-2nc2ccccc21
  outcome: inactive

## CC(=O)/C(=C/N1CCNC1=S)C(=O)Nc1ccc([N+](=O)[O-])cc1
  EC50: > 200 µM
  IC50: 43.7 µM

## Cc1nc2c(sc3nc4ccccc4n32)c(=O)[nH]1
  EC50: > 100 µM
  IC50: > 100 µM

## CC(=O)O[C@@H]1CCN(C(=O)C(NC(=O)OC(C)(C)C)C(C)C)[C@@H]1C(O)CC(=O)O (stereo not given in full)
  EC50: > 200 µM
  IC50: > 200 µM

## COc1ccc(/C=C/C(=O)c2cc(C)ccc2OC(C)=O)cc1
  EC50: > 23.4 µM
  IC50: 15.8 µM

## COc1ccc(/C(=N/Nc2ccccc2)C(c2ccc(OC)cc2)C2OC(=O)c3ccccc32)cc1 (stereo not given)
  EC50: > 28.2 µM
  IC50: > 28.2 µM

## O=C(Sc1ccccc1)n1nc(Cl)c2ccc([N+](=O)[O-])cc21
  EC50: > 200 µM
  IC50: 43.7 µM

## CCOC(=O)CN1C(=O)c2c(c(C)n(-c3ccccc3)c2C)C1=O
  EC50: > 200 µM
  IC50: > 200 µM

## OC[C@H]1NC[C@@H](O)[C@@H](O)[C@H]1O
  outcome: inactive

## CC(C)/C(Cl)=N/OC(=O)Nc1cccc(C(F)(F)F)c1
  EC50: > 20 µM
  IC50: 3.02 µM

## COc1c(Br)c(=O)n(C)c(=O)n1C
  EC50: > 200 µM
  IC50: > 200 µM

## O=C1OC2(C(F)(F)F)Oc3ccccc3CN2C12CCCCC2 (stereo not given)
  EC50: > 200 µM
  IC50: 115 µM

## OCC1CC2C=CCC(C2)C1 (stereo not given)
  outcome: inactive

## O=c1[nH]c(=O)n(C2CC(O)C(CO)O2)cc1C#Cc1cc(F)cc(F)c1 (stereo not given)
  EC50: > 692 µM
  IC50: 355 µM

## COc1ccc(/C=N/n2c(C)nc3c(sc(=S)n3-c3ccccc3)c2=O)cc1
  EC50: > 12.6 µM
  IC50: > 12.6 µM

## NC1=Nc2ccccc2Sc2nnc(-c3ccc(Cl)cc3)n21
  EC50: > 200 µM
  IC50: 115 µM

## COC(=O)C1Cc2c(OC)ccc(OC)c2C(O)C1C(=O)OC (stereo not given)
  EC50: > 200 µM
  IC50: > 200 µM

## Cn1c2ccccc2c2oc(CO)cc(=O)c21
  EC50: > 200 µM
  IC50: 126 µM

## Cc1cc(C)c(S(=O)(=O)N(CCCCCCN)OCCCN)c(C)c1
  EC50: > 200 µM
  IC50: 30.2 µM

## C[C@@](O)(/C=C/[C@H]1CC=CC(=O)O1)[C@@H](C[C@@H](O)\C=C/C=C\C=C\CO)OP(=O)(O)O
  outcome: inactive

## Cc1c(C(=O)C/C(=N/NC(=O)C[n+]2ccccc2)C(=O)Nc2ccccc2)[n+](=O)c2ccccc2n1O
  EC50: > 17.8 µM
  IC50: > 17.8 µM

## O=C(CC(=O)n1nc(-c2ccccc2)c(N=Nc2ccc([N+](=O)[O-])cc2)c1-c1ccccc1)Nc1ccc(Cl)cc1
  EC50: > 45.7 µM
  IC50: > 45.7 µM

## OCC(O)CSSCC(O)C(O)CSSCC(O)CO (stereo not given)
  outcome: inactive

## CC(C)Nc1n[nH]c(=O)n1C(C)C
  EC50: > 200 µM
  IC50: > 200 µM

## CC(=O)NCc1nc(C#N)c(N)o1
  EC50: > 200 µM
  IC50: > 200 µM

## O=C(CC1C(=O)Nc2ccccc2S1(=O)=O)Nc1cc(Cl)ccc1Cl (stereo not given)
  EC50: > 18.2 µM
  IC50: > 18.2 µM

## O=C(O)/C=C\C(=O)Nc1ccc(S(=O)(=O)c2ccc(NC(=O)/C=C\C(=O)O)cc2)cc1
  EC50: > 562 µM
  IC50: > 562 µM

## O=C(Cc1ccccc1)NC(=O)Nc1ccccc1
  EC50: > 20.4 µM
  IC50: > 20.4 µM

## Cc1ccc2c3c4c(ccc13)C(C)(C)OC4=C(C(C)C)C2=O
  EC50: > 200 µM
  IC50: 15.8 µM

## CC(C)CCC[C@@H](C)[C@H]1CC[C@H]2[C@@H]3CC[C@H]4C[C@@H](CCC=C(c5cc(Cl)c(O)c(C(=O)O)c5)c5cc(Cl)c(O)c(C(=O)O)c5)CC[C@]4(C)[C@H]3CC[C@]12C
  EC50: 37.2 µM
  IC50: 295 µM

## CCCCCCCCCCCC(=O)OC[C@@H](C[As](=O)(O)O)OC(=O)CCCCCCCCCCC
  EC50: > 200 µM
  IC50: 3.89 µM

## C=CC(=O)N1C/C(=C\c2ccc(OC)cc2)C(=O)/C(=C/c2ccc(OC)cc2)C1
  EC50: 0.2 µM
  IC50: 2.4 µM

## Cc1ccc(NCC2(/N=C/c3ccccc3)OC(CO)C(O)C2O)cc1 (stereo not given)
  EC50: > 263 µM
  IC50: 6.61 µM

## N#CCCC(CC#N)N1CCN(C(CC#N)CCC#N)CC1 (stereo not given)
  EC50: > 200 µM
  IC50: > 200 µM

## NC1=C(O)/C(=N/NS(=O)(=O)c2ccccc2)C(c2cccc(Cl)c2)O1 (stereo not given)
  EC50: > 661 µM
  IC50: 32.4 µM

## Cc1nonc1NC(=O)OCc1ccccc1
  EC50: > 112 µM
  IC50: > 112 µM

## CCCCN(CCCC)C(=S)SSC(=S)N(CCCC)CCCC
  EC50: > 200 µM
  IC50: 5.25 µM

## O=C(C/C(=N/O)C(=O)NC1=C(Cl)C(=O)c2ccccc2C1=O)CC(c1ccccc1)c1c(O)c2ccccc2oc1=O (stereo not given)
  EC50: > 12.3 µM
  IC50: 6.61 µM

## NNC(=S)N/N=C(\c1nc2ccc(Cl)cc2[nH]c1=O)C(O)c1ccc(Cl)cc1Cl (stereo not given)
  EC50: > 525 µM
  IC50: 97.7 µM

## C=C1CCc2ccccc2C1=O
  EC50: > 200 µM
  IC50: 31.6 µM

## CC1(C)OC(=O)C(c2cccs2)C(=O)O1
  EC50: > 44.7 µM
  IC50: > 44.7 µM

## CCCCCCO/N=C\c1c2c(O)c3c(O)c(C)c4c(c3c1O)C(=O)C(C)(O/C=C\C(OC)C(C)C(OC(C)=O)C(C)C(O)C(C)C(O)C(C)/C=C\C=C(\C)C(=O)N2)O4 (stereo not given)
  EC50: > 200 µM
  IC50: 5.37 µM

## NC(CSSCC(N)C(=O)O)C(=O)O (stereo not given)
  EC50: > 200 µM
  IC50: > 200 µM

## COc1cccc2nc3cc(C)c(C)cc3nc12
  EC50: > 30.2 µM
  IC50: > 30.2 µM

## NC(=O)c1cc2ccc(O)c(O)c2cn1
  EC50: > 209 µM
  IC50: 2.95 µM

## O=[N+]([O-])c1ccc(Cc2ccc([N+](=O)[O-])cc2)cc1
  EC50: > 28.2 µM
  IC50: > 28.2 µM

## Cc1cc2c(C(C)C)c(O)c(O)c3coc(/c1=c1/c(C)cc4c(C(C)C)c(=O)c(=O)c5coc1c45)c32
  EC50: > 53.7 µM
  IC50: 8.91 µM

## O=c1c(-c2cccc(O)c2O)coc2cc(OC3OC(CO)C(O)C(O)C3O)ccc12 (stereo not given)
  EC50: > 200 µM
  IC50: > 200 µM

## COc1cc(-c2c(C(C)=O)c(-c3ccccc3)n(C3OC(COC(C)=O)C(OC(C)=O)C(OC(C)=O)C3OC(C)=O)c(=S)c2C#N)ccc1O (stereo not given)
  EC50: > 200 µM
  IC50: 74.1 µM and 45.7 µM

## Cc1nc2c(O)cc(Cl)c(O)c2nc1C
  outcome: inactive

## CC(CCc1nc2ccccc2o1)C1CCC2C3CC[C@@H]4C[C@H](O)CC[C@]4(C)C3C[C@H](O)[C@]12C (stereo not given in full)
  EC50: > 50.1 µM
  IC50: 7.24 µM

## Cc1ccc(-n2nc3c(c(C#N)c2=O)-c2ccccc2C3=O)cc1
  outcome: inactive

## O=C(CC(=O)Nc1ccccc1Cl)NNC(c1cc(N=Nc2ccc(Br)cc2)ccc1O)P(O)O (stereo not given)
  EC50: > 100 µM
  IC50: 1.32 µM

## CN(C)CC/C(=N\Nc1ccc(Cl)cc1)c1ccccc1
  outcome: inactive

## O=C1c2ccccc2C(=O)c2c(NCCOCCO)ccc(NCCOCCO)c21
  EC50: > 200 µM
  IC50: 107 µM

## CN=S(=O)(C[C@]1(O)CC2OC1C1OC(C)(C)OC21)c1ccccc1 (stereo not given in full)
  EC50: > 708 µM
  IC50: > 708 µM

## C/C(=C\CNc1ncnc2c1ncn2CCC#N)CO
  EC50: > 200 µM
  IC50: > 200 µM

## c1ccc2c(c1)-c1ccccc1C2NC1=NCCO1
  EC50: > 200 µM
  IC50: 26.3 µM

## C=Cc1cc[n+](Cc2ccc(C[n+]3ccc(C=C)cc3)cc2)cc1
  EC50: > 166 µM
  IC50: 85.1 µM

## CS(=O)(=O)NC1C(=O)c2ccccc2OC1c1ccccc1 (stereo not given)
  EC50: > 200 µM
  IC50: > 200 µM

## CN(C)/C=C(\C(=O)c1ccccc1)n1nc(-c2ccccc2)cc1-c1ccccc1
  EC50: > 200 µM
  IC50: 87.1 µM

## O=c1cccc2n1C[C@H]1C[C@@H]2CN2CCCC[C@H]12
  EC50: > 200 µM
  IC50: > 200 µM

## Cc1cc2c(C(C)C)c(O)c(O)c(C=Nc3ccccc3)c2c(O)c1-c1c(C)cc2c(C(C)C)c(O)c(O)c(C=Nc3ccccc3)c2c1O
  EC50: 0.55 µM
  IC50: 0.562 µM

## CCOC(=O)NC(Nc1ccc(C)cc1)(C(F)(F)F)C(F)(F)F
  EC50: > 200 µM
  IC50: > 200 µM

## CCCc1onc(CCC(=O)N(Cc2ccccc2)Cc2ccccc2)c1CC
  outcome: inactive

## CC12C(=O)OC(=O)C1(C)C1C=CC2O1 (stereo not given)
  EC50: > 200 µM
  IC50: 132 µM

## c1ccc(Cc2nc3ccccc3[nH]2)cc1
  EC50: > 34.7 µM
  IC50: > 34.7 µM

## O=C(/N=C/c1c(O)c2ccccc2oc1=O)NC1CCCCC1
  EC50: > 41.7 µM
  IC50: > 41.7 µM

## [B-][N+]1(C)CC[N+]([B-])(C)CC1 (stereo not given)
  EC50: > 200 µM
  IC50: > 200 µM

## O=C1OC(c2cccc3c(F)cccc23)c2ccccc21 (stereo not given)
  outcome: inactive

## CNC(=O)O/N=C(/C)c1cccc([N+](=O)[O-])c1
  EC50: > 200 µM
  IC50: > 200 µM

## Cc1cc(C)cc(OCC2CNC(=O)O2)c1 (stereo not given)
  EC50: > 200 µM
  IC50: > 200 µM

## O=C(N=S(NC(=O)c1ccccc1)C(Cl)(Cl)Cl)c1ccccc1 (stereo not given)
  EC50: > 44.7 µM
  IC50: 16.6 µM

## O=C(NCCN1CCCC1)c1cn2c(ccc3sc4ccccc4c(=O)c32)n1
  EC50: > 200 µM
  IC50: 1.26 µM

## O=C(COc1ccc(OCC(=O)N2C(=O)CC(=O)N(c3ccccc3)C2=S)cc1)N1C(=O)CC(=O)N(c2ccccc2)C1=S
  EC50: > 141 µM
  IC50: 75.9 µM

## O=c1ccn([C@@H]2C[C@H](CO)CS(=O)C2)c(=O)[nH]1 (stereo not given in full)
  EC50: > 977 µM
  IC50: > 977 µM

## COc1cc(C2SCC(=O)N2c2ccc(-c3ccc(-n4c(-c5ccccc5)nc5ccccc5c4=O)cc3)cc2)cc(OC)c1OC (stereo not given)
  EC50: > 200 µM
  IC50: 14.8 µM

## O=S1(=O)CC2(N3CCOCC3)CCCC21 (stereo not given)
  EC50: > 1070 µM
  IC50: 229 µM

## CN1C(=O)N(C)C2(CCN(CC(CC3OCCO3)c3ccc(F)cc3)CC2)C1=O (stereo not given)
  EC50: > 200 µM
  IC50: > 200 µM

## COc1cccc(/C=C2\C(=O)N(C(=O)Cc3ccccc3)N=C2C)c1
  EC50: > 15.5 µM
  IC50: > 15.5 µM

## C[C@@H]1C[C@H]2[C@@H]3CCC4=CC(=O)C=C[C@]4(C)[C@@]3(F)[C@@H](O)C[C@]2(C)[C@@]1(O)C(=O)CO
  outcome: inactive

## COc1cc(CC(=O)O)c(C(=O)c2ccc(C#N)cc2)cc1OC
  EC50: > 200 µM
  IC50: > 200 µM

## Cc1cc(Cl)ccc1Nc1nc2c(s1)C(=O)c1ccccc1C2=O
  outcome: inactive

## COCC1OC(N2C(=O)NC(=O)[C@@H]3C=C4CCCCC4=C[C@@H]32)C(OC)C1OC (stereo not given in full)
  EC50: > 200 µM
  IC50: 105 µM

## CCNc1ccc2c(c1)C(=O)N(OS(C)(=O)=O)C2=O
  outcome: inactive
